≈ marks a conversion by molar mass, not a printed value.
Tests used:
L1210 tumor cells = experiment: anticancer activity (growth of L1210 tumor cells, trypan blue staining of surviving cells); assay type: cell-based; settings: Mus musculus, 48 h, 2.5×10^4 cells/ml, grown for 2 days
Description: Measurement of anticancer activity
Tumor cells were grown in an RPMI 1640 medium containing of 10% fetal calf serum.
The compound was dissolved in 99.5% ethanol, adjusted before use so that the final concentration of ethanol was 0.1% or less, and added to the medium.
The control was 0.1% ethanol, and L1210 tumor cells were inoculated in the medium in a concentration of 2.5×10^4 cells/ml and grown for 2 days. The number of surviving cells were measured by trypan blue staining.

[1] = tested on: Human osteoblasts (KK-3, 18PDL); experiment: bone formation activity (Ca, P and alkaline phosphatase in human osteoblasts); assay type: cell-based; settings: 14 days
Description: Measurement of bone formation activity
Human osteoblasts (KK-3, 18PDL) were cultured in an α-MEM containing 10% fetal calf serum. After the growth become stationary, the compound was added in a given concentration in the presence of 2 mM α-glycerophosphate and treated for 14 days. The cell phase was washed with physiological saline, and the alkaline phosphatase activity (ALP) was measured through the absorption of OD415. Then, calcium (Ca) and phosphorus (P) were extracted with a 2N hydrochloric acid and quantitatively determined.

[2] = Table 9, 1.0 × 10^-6 M, control 1.15 ± 0.19
[3] = Table 9, 1.0 × 10^-6 M, control 2.17 ± 2.56
[4] = Table 9, 1.0 × 10^-6 M, control 3.83 ± 1.72
[5] = Table 9, 3.3 × 10^-6, control 1.15 ± 0.19
[6] = Table 9, 3.3 × 10^-6, control 2.17 ± 2.56
[7] = Table 6, 1.0 × 10^-6, control 0.550 ± 0.040
[8] = Table 6, 1.0 × 10^-6, control 11.00 ± 1.73
[9] = Table 6, 2.5 × 10^-7 M, control 0.550 ± 0.040
[10] = Table 6, 2.5 × 10^-7 M, control 11.00 ± 1.73
[11] = Table 6, 2.5 × 10^-7 M, control 20.00 ± 1.73

Compound `COC(=O)c1ccc(/C=C2/C(=O)C=C(C)C2(O)CCCCOc2ccccc2)cc1` (stereo not shown) [drawing 208] has an IC50 (L1210 tumor cells) of 10.8 µg/mL (≈ 26.5 µM).

`COC(=O)c1ccc(/C=C2/C(=O)C=C[C@@]2(O)CCCCOc2ccccc2)cc1` [drawing 213] gave an IC50 (L1210 tumor cells) of 0.01 µg/mL (≈ 0.0255 µM).

In the case of `O=C1C=CC(O)(CCCCOc2ccccc2)/C1=C\c1ccncc1` (stereo not shown), the IC50 (L1210 tumor cells) is reported as 0.021 µg/mL (≈ 0.0626 µM).

Compound `CN(C)c1ccc(/C=C2/C(=O)C(Cl)=CC2(O)CCCCOc2ccccc2)cc1` (stereo not shown) [drawing 217] has a P ([1]; Table 7, 10^-6 M, control 0.17 ± 0.29) of 1.72 ± 0.05 μg/dish, a Ca ([1]; Table 7, 10^-6 M, control 0.33 ± 0.29) of 23.50 ± 3.77 μg/dish and an ALP ([1]; Table 7, 10^-6 M, control 0.826 ± 0.006) of 0.503 OD415 /dish. For the same compound, the P ([1]; Table 7, 10^-7 M, control 0.17 ± 0.29) was 0.33 ± 0.29 μg/dish, the Ca ([1]; Table 7, 10^-7 M, control 0.33 ± 0.29) was 0.0 ± 0 μg/dish and the ALP ([1]; Table 7, 10^-7 M, control 0.826 ± 0.006) was 0.796 ± 0.047 OD415 /dish.

With `CN(C)c1ccc(/C=C2/C(=O)C(Cl)=CC2(O)CCCCOc2ccccc2)cc1` (stereo not shown) [drawing 212] the IC50 (L1210 tumor cells) was 0.062 µg/mL (≈ 0.151 µM).

`COC(=O)c1ccc(/C=C2/C(=O)C=CC2(O)CCCCOc2ccccc2)cc1` (stereo not shown) [drawing 207] showed an IC50 (L1210 tumor cells) of 0.014 µg/mL (≈ 0.0357 µM).

For `CN(C)c1ccc(C=C2C(=O)C=CC2(O)CCCCOc2ccccc2)cc1` (stereo not shown), the IC50 (L1210 tumor cells) was 0.378 µg/mL (≈ 1 µM).

`COC(=O)c1ccc(/C=C2/C(=O)C(Cl)=CC2(O)CCCCOc2ccccc2)cc1` (stereo not shown) [drawing 209] was tested, and the IC50 (L1210 tumor cells) was 0.004 µg/mL (≈ 0.00937 µM).

`COC(=O)c1ccc(/C=C2/C(=O)C=C[C@@]2(O)CCCCOc2ccccc2)cc1` [drawing 220] gave an ALP [1, 2] of 0.04 ± 0.01 OD415 /dish, a Ca [1, 3] of 312.17 ± 12.30 μg/dish and a P [1, 4] of 170.33 ± 11.60 μg/dish. For the same compound, the ALP [1, 5] was 0.03 OD415 /dish and the Ca [1, 6] was 328.00 ± 15.90 μg/dish.

In the case of `COC(=O)c1ccc(/C=C2/C(=O)C=C[C@]2(O)CCCCOc2ccccc2)cc1` [drawing 219], the ALP [1, 2] is reported as 0.74 ± 0.06 OD415 /dish, the Ca [1, 3] is reported as 18.00 ± 8.00 μg/dish and the P [1, 4] is reported as 13.00 ± 4.69 μg/dish. For the same compound, the ALP [1, 5] was 1.79 OD415 /dish and the Ca [1, 6] was 318.50 ± 12.50 μg/dish.

Compound `COC(=O)c1ccc(/C=C2/C(=O)C(Cl)=CC2(O)CCCCOc2ccccc2)cc1` (stereo not shown) [drawing 216] has an ALP [1, 7] of 0.0 OD415 /dish, a Ca [1, 8] of 124.50 ± 2.12 μg/dish and an ALP [1, 9] of 0.484 ± 0.078 OD415 /dish. For the same compound, the Ca [1, 10] was 37.00 ± 1.00 μg/dish and the P [1, 11] was 36.00 ± 1.00 μg/dish.

For `COC(=O)c1ccc(/C=C2/C(=O)C=C[C@]2(O)CCCCOc2ccccc2)cc1` [drawing 214], the IC50 (L1210 tumor cells) was 0.026 µg/mL (≈ 0.0663 µM).

With `COC(=O)c1ccc(/C=C2/C(=O)C=CC2(O)CCCCOc2ccccc2)cc1` (stereo not shown) [drawing 215] the ALP [1, 7] was 0.488 OD415 /dish, the Ca [1, 8] was 47.00 ± 1.00 μg/dish and the ALP [1, 9] was 0.572 ± 0.028 OD415 /dish. The Ca [1, 10] was 22.67 ± 3.51 μg/dish and the P [1, 11] was 28.33 ± 2.52 μg/dish.

`COC(=O)c1ccc(/C=C2/C(=O)C=C(C)C2(O)CCCCOc2ccccc2)cc1` (stereo not shown) [drawing 218] gave a Ca ([1]; Table 8, 10^-4 M, control 0.33 ± 0.58) of 8.133 ± 3.06 μg/dish, an ALP ([1]; Table 8, 10^-4 M, control 1.684 ± 0.068) of 0.697 OD415 /dish and a P ([1]; Table 8, 10^-4 M, control 7.67 ± 0.58) of 50.33 ± 1.53 μg/dish. It also gave a Ca ([1]; Table 8, 10^-5 M, control 0.33 ± 0.58) of 1.00 ± 0.0 μg/dish, an ALP ([1]; Table 8, 10^-5 M, control 1.684 ± 0.068) of 1.538 ± 0.028 OD415 /dish and a P ([1]; Table 8, 10^-5 M, control 7.67 ± 0.58) of 8.33 ± 1.53 μg/dish.

From patent publication US5675031A, “4-hydroxy-2-cyclopentenone derivatives and anticancer agent and bone formation accelerator containing the same” (Teijin Limited, priority 1992, dated 1997)
